{"source": "patent US10745361B2", "about": "“Piperazine derivatives having multimodal activity against pain” (ESTEVE PHARMACEUTICALS, S.A., priority 2013, dated 2020)"}
{"molecular_target": "human σ1 receptor and human μ-opioid receptor", "assay": "Human σ1 receptor radioligand assay and human μ-opioid receptor radioligand assay (μ and σ1 dual binding)", "set-up": "key to μ and σ1 dual binding: +: Both Ki-μ and Ki-σ1>=500 nM; ++: One K, <500 nM while the other K, is >=500 nM; +++: Both Ki-μ and Ki-σ1<500 nM; ++++: Both Ki-μ and Ki-σ1<100 nM", "settings": "one class for both Ki: σ1 ([3H](+)-pentazocine, transfected HEK-293 membranes) and μ-opioid ([3H]-DAMGO, transfected CHO-K1 membranes)", "method": "Human σ1 Receptor Radioligand Assay\nTo investigate binding properties of σ1 receptor ligands to human σ1 receptor, transfected HEK-293 membranes and [^3H](+)-pentazocine (Perkin Elmer, NET-1056), as the radioligand, were used. The assay was carried out with 7 μg of membrane suspension, 5 nM of [^3H](+)-pentazocine in either absence or presence of either buffer or 10 μM Haloperidol for total and non-specific binding, respectively. Binding buffer contained Tris-HCl 50 mM at pH 8. Plates were incubated at 37° C. for 120 minutes. After the incubation period, the reaction mix was then transferred to MultiScreen HTS, FC plates (Millipore), filtered and plates were washed 3 times with ice-cold 10 mM Tris-HCL (pH7.4). Filters were dried and counted at approximately 40% efficiency in a MicroBeta scintillation counter (Perkin-Elmer) using EcoScint liquid scintillation cocktail\nHuman μ-Opioid Receptor Radioligand Assay\nTo investigate binding properties of p-opioid receptor ligands to human p-opioid receptor, transfected CHO-K1 cell membranes and [^3H]-DAMGO (Perkin Elmer, ES-542-C), as the radioligand, were used. The assay was carried out with 20 μg of membrane suspension, 1 nM of [^3H]-DAMGO in either absence or presence of either buffer or 10 μM Naloxone for total and non-specific binding, respectively. Binding buffer contained Tris-HCl 50 mM, MgCl2 5 mM at pH 7.4. Plates were incubated at 27° C. for 60 minutes. After the incubation period, the reaction mix was then transferred to MultiScreen HTS, FC plates (Millipore), filtered and plates were washed 3 times with ice-cold 10 mM Tris-HCL (pH 7.4). Filters were dried and counted at approximately 40% efficiency in a MicroBeta scintillation counter (Perkin-Elmer) using\nEcoScint liquid scintillation cocktail.\nThe following scale as been adopted for representing the binding to the σ1 receptor and the μ-opiod receptor expressed as Ki: • + Both Ki-μ and Ki-σ1>=500 nM • ++ One K, <500 nM while the other K, is >=500 nM • +++ Both Ki-μ and Ki-σ1<500 nM • ++++ Both Ki-μ and Ki-σ1<100 nM", "units": {"Ki": "nM"}}
{"compound": "CC(C)S(=O)(=O)Nc1cccc(N2CCN(Cc3cn(-c4ccccc4)nn3)CC2)c1", "note": "[Example 1, N-(3-(4-((1-phenyl-1H-1,2,3-triazol-4-yl)methyl)piperazin-1-yl)phenyl)propane-2-sulfonamide]", "Ki": "< 100"}
{"compound": "CC(C)S(=O)(=O)Nc1cccc(N2CCN(Cc3cn(-c4cncc(Cl)c4)nn3)CC2)n1", "note": "[Example 2, N-(6-(4-((1-(5-chloropyridin-3-yl)-1H-1,2,3-triazol-4-yl)methyl)piperazin-1-yl)pyridin-2-yl)propane-2-sulfonamide]", "μ and σ1 dual binding": "++"}
{"compound": "CS(=O)(=O)Nc1cccc(N2CCN(Cc3cn(Cc4ccccc4)nn3)CC2)c1", "note": "[Example 3, N-(3-(4-((1-benzyl-1H-1,2,3-triazol-4-yl)methyl)piperazin-1-yl)phenyl)methanesulfonamide]", "μ and σ1 dual binding": "++"}
{"compound": "CS(=O)(=O)Nc1cccc(N2CCN(Cc3cn(-c4ccccc4)nn3)CC2)c1", "note": "[Example 4, N-(3-(4-((1-phenyl-1H-1,2,3-triazol-4-yl)methyl)piperazin-1-yl)phenyl)methanesulfonamide]", "Ki": "< 500"}
{"compound": "Oc1cccc(N2CCN(Cc3cn(-c4ccccc4)nn3)CC2)c1", "note": "[Example 5, 3-(4-((1-phenyl-1H-1,2,3-triazol-4-yl)methyl)piperazin-1-yl)phenol]", "μ and σ1 dual binding": "++"}
{"compound": "Oc1cccc(N2CCN(Cc3cn(Cc4ccccc4)nn3)CC2)c1", "note": "[Example 6, 3-(4-((1-benzyl-1H-1,2,3-triazol-4-yl)methyl)piperazin-1-yl)phenol]", "μ and σ1 dual binding": "++"}
{"compound": "Oc1cccc(N2CCN(Cc3cn(-c4ccccn4)nn3)CC2)c1", "note": "[Example 7, 3-(4-((1-(pyridin-2-yl)-1H-1,2,3-triazol-4-yl)methyl)piperazin-1-yl)phenol]", "μ and σ1 dual binding": "++"}
{"compound": "CS(=O)(=O)Nc1cccc(N2CCN(Cc3cn(-c4ccc(C(F)(F)F)nc4)nn3)CC2)c1", "note": "[Example 8, N-(3-(4-((1-(6-(trifluoromethyl)pyridin-3-yl)-1H-1,2,3-triazol-4-yl)methyl)piperazin-1-yl)phenyl)methanesulfonamide]", "Ki": "≥ 500"}
{"compound": "CC(C)S(=O)(=O)Nc1cccc(N2CCN(Cc3cn(-c4ccccc4F)nn3)CC2)c1", "note": "[Example 9, N-(3-(4-((1-(2-fluorophenyl)-1H-1,2,3-triazol-4-yl)methyl)piperazin-1-yl)phenyl)propane-2-sulfonamide]", "Ki": "< 100"}
{"compound": "CCS(=O)(=O)Nc1cccc(N2CCN(Cc3cn(-c4ccccc4)nn3)CC2)c1", "note": "[Example 10, N-(3-(4-((1-phenyl-1H-1,2,3-triazol-4-yl)methyl)piperazin-1-yl)phenyl)ethanesulfonamide]", "Ki": "< 500"}
{"compound": "CS(=O)(=O)Nc1cccc(NC2CCN(Cc3cn(-c4ccccc4)nn3)C2)c1", "note": "(stereo not shown) [Example 11, N-(3-(1-((1-phenyl-1H-1,2,3-triazol-4-yl)methyl)pyrrolidin-3-ylamino)phenyl)methanesulfonamide]", "Ki": "< 500"}
{"compound": "CS(=O)(=O)Nc1cccc(NC2CN(Cc3cn(-c4ccccc4)nn3)C2)c1", "note": "[Example 12, N-(3-(1-((1-phenyl-1H-1,2,3-triazol-4-yl)methyl)azetidin-3-ylamino)phenyl)methanesulfonamide]", "Ki": "< 500"}
{"compound": "CS(=O)(=O)Nc1cccc(N2CC3CN(Cc4cn(-c5ccccc5)nn4)CC3C2)c1", "note": "(stereo not shown) [Example 13, N-(3-(5-((1-phenyl-1H-1,2,3-triazol-4-yl)methyl)hexahydropyrrolo[3,4-c]pyrrol-2(1H)-yl)phenyl)methanesulfonamide]", "Ki": "< 500"}
{"compound": "CN(c1cccc(NS(C)(=O)=O)c1)C1CCN(Cc2cn(-c3ccccc3)nn2)C1", "note": "(stereo not shown) [Example 14, N-(3-(methyl(1-((1-phenyl-1H-1,2,3-triazol-4-yl)methyl)pyrrolidin-3-yl)amino)phenyl)methanesulfonamide]", "Ki": "< 100"}
{"compound": "CN(c1cccc(NS(C)(=O)=O)c1)C1CN(Cc2cn(-c3ccccc3)nn2)C1", "note": "[Example 15, N-(3-(methyl(1-((1-phenyl-1H-1,2,3-triazol-4-yl)methyl)azetidin-3-yl)amino)phenyl)methanesulfonamide]", "Ki": "< 500"}
{"compound": "CC(C)S(=O)(=O)Nc1cccc(N2CCN(Cc3cn(Cc4ccccn4)nn3)CC2)c1", "note": "[Example 16, N-(3-(4-((1-(pyridin-2-ylmethyl)-1H-1,2,3-triazol-4-yl)methyl)piperazin-1-yl)phenyl)propane-2-sulfonamide]", "μ and σ1 dual binding": "++"}
{"compound": "CC(C)S(=O)(=O)Nc1cccc(N2CCN(Cc3cn(-c4ccccn4)nn3)CC2)c1", "note": "[Example 17, N-(3-(4-((1-(pyridin-2-yl)-1H-1,2,3-triazol-4-yl)methyl)piperazin-1-yl)phenyl)propane-2-sulfonamide]", "Ki": "< 500"}
{"compound": "O=S(=O)(Nc1cccc(N2CCN(Cc3cn(-c4ccccc4)nn3)CC2)c1)C(F)(F)F", "note": "[Example 18, 1,1,1-trifluoro-N-(3-(4-((1-phenyl-1H-1,2,3-triazol-4-yl)methyl)piperazin-1-yl)phenyl)methanesulfonamide]", "Ki": "≥ 500"}
{"compound": "CC(C)S(=O)(=O)Nc1cccc(N2CCN(Cc3cn(-c4ccc(F)cn4)nn3)CC2)c1", "note": "[Example 19, N-(3-(4-((1-(5-fluoropyridin-2-yl)-1H-1,2,3-triazol-4-yl)methyl)piperazin-1-yl)phenyl)propane-2-sulfonamide]", "μ and σ1 dual binding": "++"}
{"compound": "O=S(=O)(Nc1cccc(N2CCN(Cc3cn(-c4ccccc4)nn3)CC2)c1)C1CC1", "note": "[Example 20, N-(3-(4-((1-phenyl-1H-1,2,3-triazol-4-yl)methyl)piperazin-1-yl)phenyl)cyclopropanesulfonamide]", "Ki": "< 100"}
{"compound": "CC(C)S(=O)(=O)Nc1cccc(N2CCN(Cc3cn(-c4ncccc4F)nn3)CC2)c1", "note": "[Example 21, N-(3-(4-((1-(3-fluoropyridin-2-yl)-1H-1,2,3-triazol-4-yl)methyl)piperazin-1-yl)phenyl)propane-2-sulfonamide]", "μ and σ1 dual binding": "++"}
{"compound": "CC(C)S(=O)(=O)Nc1cccc(N2CCN(Cc3cn(-c4cc(F)ccn4)nn3)CC2)c1", "note": "[Example 22, N-(3-(4-((1-(4-fluoropyridin-2-yl)-1H-1,2,3-triazol-4-yl)methyl)piperazin-1-yl)phenyl)propane-2-sulfonamide]", "μ and σ1 dual binding": "++"}
{"compound": "CS(=O)(=O)Nc1cccc(N2[C@@H]3CC[C@H]2CN(Cc2cn(-c4ccccc4)nn2)C3)c1", "note": "[Example 23, N-(3-((1R,5S)-3-((1-phenyl-1H-1,2,3-triazol-4-yl)methyl)-3,8-diazabicyclo[3.2.1]octan-8-yl)phenyl)methanesulfonamide]", "μ and σ1 dual binding": "++"}
{"compound": "CC(C)S(=O)(=O)Nc1cccc(N2CCN(Cc3cnn(-c4ccccn4)n3)CC2)c1", "note": "[Example 24, N-(3-(4-((2-(pyridin-2-yl)-2H-1,2,3-triazol-4-yl)methyl)piperazin-1-yl)phenyl)propane-2-sulfonamide]", "Ki": "≥ 500"}
{"compound": "CS(=O)(=O)Nc1cccc(N2CCCN(Cc3cn(-c4ccccc4)nn3)CC2)c1", "note": "[Example 25, N-(3-(4-((1-phenyl-1H-1,2,3-triazol-4-yl)methyl)-1,4-diazepan-1-yl)phenyl)methanesulfonamide]", "Ki": "< 500"}
{"compound": "CC(C)S(=O)(=O)Nc1cccc(N(C)C2CCN(Cc3cn(-c4ccccc4)nn3)C2)c1", "note": "(stereo not shown) [Example 26, N-(3-(methyl(1-((1-phenyl-1H-1,2,3-triazol-4-yl)methyl)pyrrolidin-3-yl)amino)phenyl)propane-2-sulfonamide]", "Ki": "< 100"}
{"compound": "CC(C)S(=O)(=O)Nc1cccc(N2CCN(Cc3cn(-c4cccc(F)c4)nn3)CC2)c1", "note": "[Example 27, N-(3-(4-((1-(3-fluorophenyl)-1H-1,2,3-triazol-4-yl)methyl)piperazin-1-yl)phenyl)propane-2-sulfonamide]", "Ki": "< 100"}
{"compound": "CC(C)S(=O)(=O)Nc1cccc(N2CCN(Cc3cn(-c4ccc(F)cc4)nn3)CC2)c1", "note": "[Example 28, N-(3-(4-((1-(4-fluorophenyl)-1H-1,2,3-triazol-4-yl)methyl)piperazin-1-yl)phenyl)propane-2-sulfonamide]", "Ki": "< 500"}
{"compound": "CC(C)S(=O)(=O)Nc1cccc(N2CCN(Cc3cn(-c4cccc(F)n4)nn3)CC2)c1", "note": "[Example 29, N-(3-(4-((1-(6-fluoropyridin-2-yl)-1H-1,2,3-triazol-4-yl)methyl)piperazin-1-yl)phenyl)propane-2-sulfonamide]", "Ki": "< 500"}
{"compound": "CC(C)S(=O)(=O)Nc1cccc(N2CC3CN(Cc4cn(-c5ccccc5)nn4)CC3C2)c1", "note": "(stereo not shown) [Example 30, N-(3-(5-((1-phenyl-1H-1,2,3-triazol-4-yl)methyl)hexahydropyrrolo[3,4-c]pyrrol-2(1H)-yl)phenyl)propane-2-sulfonamide]", "Ki": "< 100"}
{"compound": "Nc1cccc(N2CCN(Cc3cn(-c4ccccc4)nn3)CC2)c1", "note": "[Example 31, 3-(4-((1-phenyl-1H-1,2,3-triazol-4-yl)methyl)piperazin-1-yl)aniline]", "Ki": "≥ 500"}
